Patent publication US20120214847A1, “2-[1-PHENYL-5-HYDROXY-4a-SUBSTITUTED-HEXAHYDROCYCLOPENTA[F]INDAZOL-5-YL]ETHYL PHENYL DERIVATIVES AS GLUCOCORTICOID RECEPTOR LIGANDS” (Merck Sharp & Dohme Corp., priority 2009, published 2012)
Like-named read-outs stand apart in the source and are kept apart here.

Molecular target: T1, human GR (Homo sapiens, UniProt P04150)
T1 construct: naturally expresses the human GR; endogenous in cells
T1 sequence (P04150 1-777): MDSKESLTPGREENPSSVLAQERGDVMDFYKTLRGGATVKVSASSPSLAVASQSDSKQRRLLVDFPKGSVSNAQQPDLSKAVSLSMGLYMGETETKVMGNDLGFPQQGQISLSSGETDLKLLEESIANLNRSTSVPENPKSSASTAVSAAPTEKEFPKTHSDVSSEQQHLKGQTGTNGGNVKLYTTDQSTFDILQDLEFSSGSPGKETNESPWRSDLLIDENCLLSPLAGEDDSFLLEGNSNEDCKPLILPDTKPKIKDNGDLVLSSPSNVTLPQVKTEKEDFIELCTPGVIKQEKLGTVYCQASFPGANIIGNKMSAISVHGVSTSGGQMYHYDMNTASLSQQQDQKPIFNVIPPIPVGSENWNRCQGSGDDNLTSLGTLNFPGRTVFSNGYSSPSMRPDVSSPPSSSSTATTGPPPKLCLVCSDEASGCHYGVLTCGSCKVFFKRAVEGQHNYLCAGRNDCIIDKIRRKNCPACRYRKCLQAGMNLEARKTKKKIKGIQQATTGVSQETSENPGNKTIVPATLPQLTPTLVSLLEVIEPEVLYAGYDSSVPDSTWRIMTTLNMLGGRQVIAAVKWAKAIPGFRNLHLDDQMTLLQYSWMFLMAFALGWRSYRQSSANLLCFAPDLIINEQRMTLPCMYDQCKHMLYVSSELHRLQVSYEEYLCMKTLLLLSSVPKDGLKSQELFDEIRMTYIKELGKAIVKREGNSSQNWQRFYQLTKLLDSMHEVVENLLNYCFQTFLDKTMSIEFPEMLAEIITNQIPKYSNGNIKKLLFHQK
Test: Trans-activation modulation of glucocorticoid receptor (GRAMMER), MMTV-LUC reporter in A549 cells
Type: cell-based
Conditions: for Emax: read-out: Transactivation A549 Cells Grammer Emax (%); for EC50: IP = inflection point, read-out: Transactivation A549 Cells Grammer IP
Excerpt: Trans-Activation Modulation of Glucocorticoid Receptor (GRAMMER)
This assay assesses the ability of test compounds to control transcription from the MMTV-LUC reporter gene in lung adenocarcinoma A549 cells or HeLa cells, a human […] cell line that naturally expresses the human GR. The assay measures induction of a modified MMTV LTR/promoter linked to the LUC reporter gene.
The routine transient assay consists of plating 7,000-25,000 cells/well of a white, clear-bottom 96-well plate. Alternatively, 384-well plates can be used at a cell concentration of 10,000/well. The media that the cells are plated in is “exponential growth medium” which consists of phenol red-free RPMI1640 containing 10% FBS, 4 mM L-glutamine, 20 mM HEPES, 10 ug/mL human insulin, and 20 ug/mL gentamicin. Incubator conditions are 37° C. and 5% C02. The transfection is done in batch mode. The cells are trypsinized and counted to the right cell number in the proper amount of fresh media. It is then gently mixed with the FuGene6/DNA 25 mix and plated onto the 96 or 384-well plate, all the wells receive 100 uL or 40 uL, respectively, of medium+lipid/DNA complex then incubated 37° C. overnight. The transfection cocktail consists of serum-free OptiMEM, FuGene6 reagent and DNA. The manufacturer's (Roche Biochemical) protocol for cocktail setup is as follows: The lipid to DNA ratio is approximately 2.5:1 and the incubation time is 20 min at room temperature. Sixteen to 24 h after transfection, the cells are treated with dexamethasone to a final concentration of 10 nM as well as the compound of interest, such that final DMSO (vehicle) concentration is equal to or less than 1%. Each plate also contains samples that are treated with 10 nM dexamethasone alone, which is used as the 100% activity control. The cells are exposed to the compounds for 24 h. After 24 h, the cells are lysed by a Promega cell culture lysis buffer for approximately 30 min and then the luciferase activity in the extracts is assayed in the 96-well format luminometer. In 384 well format, Steady-Glo (Promega) or Steady-Lite (PerkinElmer) can be used by adding an equal volume of reagent to the media present in each well. Activity induced by 10 nM dexamethasone alone is set at 100% activity. Antagonist activity is calculated by determining the decrease in dexamethasone-induced activity in response to compound treatment relative to samples that were treated with dexamethasone alone. Results are expressed as % inhibition of 10 nM dexamethasone activity or as fold of 10 nM dexamethasone activity. This transactivation assay can be performed in an agonist and antagonist mode to identify these different activities.
Activity of test compounds is calculated as the Emax relative to the activity obtained with 300 nM dexamethasone. […] The exemplified tissue selective glucocorticoid receptor modulators of the present invention display agonist activity in this assay of greater than 5% and less than 100%, and maximal transactivation activity less then maximal transrepression activity. The action of compounds is also tested in an antagonist mode (Anti-GRAMMER) in which the cells are treated with medium containing an agonist such as 10 nM DEX and the ability of agents to inhibit the activation by an agonist is measured.

[1] = A549, A549 cells, Emax relative to the activity obtained with 300 nM dexamethasone
[2] = A549 cells, Emax relative to the activity obtained with 300 nM dexamethasone

SMILES	Emax [1]	EC50 (A549 cells)	Transactivation A549 Cells Grammer Emax (%) [2]	Emax [2]
CC[C@]12Cc3cnn(-c4cccnc4)c3C=C1CC[C@@]2(O)CCc1ccccc1C(N)=O [Example 13, 2-{2-[(4aS,5R)-4a-Ethyl-5-hydroxy-1-(pyridin-3-yl)-1,4,4a,5,6,7-hexahydrocyclopenta[f]indazol-5-yl]ethyl}benzamide]	34%	224 nM	–	–
CC[C@]12Cc3cnn(-c4ccc(F)cc4)c3C=C1CC[C@@]2(O)CCc1cccc(F)c1CC(N)=O [Example 60, 2-(2-{2-[(4aS,5R)-4a-Ethyl-1-(4-fluorophenyl)-5-hydroxy-1,4,4a,5,6,7-hexahydrocyclopenta[f]indazol-5-yl]ethyl}-6-fluorophenyl)acetamide]	39%	38 nM	–	–
NC(=O)c1cccnc1CC[C@]1(O)CCC2=Cc3c(cnn3-c3ccc(F)cc3)C[C@@]21C1CC1 [Example 1, 2-{2-[(4aR,5R)-4a-Cyclopropyl-1-(4-fluorophenyl)-5-hydroxy-1,4,4a,5,6,7-hexahydrocyclopenta[f]indazol-5-yl]ethyl}pyridine-3-carboxamide]	27%	61 nM	–	–
COc1ccnc(CC[C@]2(O)CCC3=Cc4c(cnn4-c4ccc(F)cc4)C[C@@]32C2CC2)c1C(N)=O [Example 54, 2-{2-[(4aR,5R)-4a-Cyclopropyl-1-(4-fluorophenyl)-5-hydroxy-1,4,4a,5,6,7-hexahydrocyclopenta[f]indazol-5-yl]ethyl}-4-methoxypyridine-3-carboxamide]	23%	35 nM	–	–
NC(=O)c1ccccc1CC[C@]1(O)CCC2=Cc3c(cnn3-c3cccc(F)c3)C[C@@]21C1CC1 [Example 7, 2-{2-[(4aR,5R)-4a-Cyclopropyl-1-(3-fluorophenyl)-5-hydroxy-1,4,4a,5,6,7-hexahydrocyclopenta[f]indazol-5-yl]ethyl}benzamide]	7%	143 nM	–	–
NC(=O)C(O)c1ccccc1CC[C@]1(O)CCC2=Cc3c(cnn3-c3ccc(F)cc3)C[C@@]21C1CC1 (single isomer, unassigned) [Example 3b]	–	108 nM	19%	–
NC(=O)Cc1ccccc1CC[C@]1(O)CCC2=Cc3c(cnn3-c3ccc(F)cc3)C[C@@]21C1CC1 [Example 56, 2-(2-{2-[(4aR,5S)-4a-Cyclopropyl-1-(4-fluorophenyl)-5-hydroxy-1,4,4a,5,6,7-hexahydrocyclopenta[f]indazol-5-yl]ethyl}phenyl)acetamide]	9%	14 nM	–	–
OC(C[C@]1(O)CCC2=Cc3c(cnn3-c3ccc(F)cc3)C[C@@]21C1CC1)c1ccccn1 (stereo partly drawn) [Example 78, (4aR,5R)-4a-Cyclopropyl-1-(4-fluorophenyl)-5-[2-hydroxy-2-(pyridin-2-yl)ethyl]-1,4,4a,5,6,7-hexahydrocyclopenta[f]indazol-5-ol]	13%	66 nM	–	–
CC[C@]12Cc3cnn(-c4ccc(F)cc4)c3C=C1CC[C@@]2(O)CCc1ccc(F)cn1 [Example 19, (4aS,5R)-4a-Ethyl-1-(4-fluorophenyl)-5-[2-(5-fluoropyridin-2-yl)ethyl]-1,4,4a,5,6,7-hexahydrocyclopenta[f]indazol-5-ol]	18%	156 nM	–	–
NC(=O)CNC(=O)c1cc(F)cnc1CC[C@]1(O)CCC2=Cc3c(cnn3-c3ccc(F)cc3)C[C@@]21C1CC1 [Example 44, N-(2-Amino-2-oxoethyl)-2-{2-[(4aR,5R)-4a-cyclopropyl-1-(4-fluorophenyl)-5-hydroxy-1,4,4a,5,6,7-hexahydrocyclopenta[f]indazol-5-yl]ethyl}-5-fluoropyridine-3-carboxamide]	39%	154 nM	–	–
N#Cc1c(F)cccc1CC[C@]1(O)CCC2=Cc3c(cnn3-c3ccccc3)C[C@@]21C1CC1 [Example 28, 2-{2-[(4aR,5R)-4a-Cyclopropyl-5-hydroxy-1-phenyl-1,4,4a,5,6,7-hexahydrocyclopenta[f]indazol-5-yl]ethyl}-6-fluorobenzonitrile]	8%	32 nM	–	–
NC(=O)c1ccccc1CC[C@]1(O)CCC2=Cc3c(cnn3-c3ccccc3)C[C@@]21C1CC1 [Example 29, 2-{2-[(4aR,5R)-4a-Cyclopropyl-5-hydroxy-1-phenyl-1,4,4a,5,6,7-hexahydrocyclopenta[f]indazol-5-yl]ethyl}benzamide]	12%	74 nM	–	–
NC(=O)c1cc(F)ccc1CC[C@]1(O)CCC2=Cc3c(cnn3-c3ccc(F)cc3)C[C@@]21C1CC1 [Example 39, 2-{2-[(4aR,5R)-4a-Cyclopropyl-1-(4-fluorophenyl)-5-hydroxy-1,4,4a,5,6,7-hexahydrocyclopenta[f]indazol-5-yl]ethyl}-5-fluorobenzamide]	14%	116 nM	–	–
CC[C@]12Cc3cnn(-c4ccc(F)cc4)c3C=C1CC[C@@]2(O)CC(O)c1c(F)ccnc1Cl (stereo partly drawn) [Example 74, (4aS,5R)-5-[2-(2-Chloro-4-fluoropyridin-3-yl)-2-hydroxyethyl]-4a-ethyl-1-(4-fluorophenyl)-1,4,4a,5,6,7-hexahydrocyclopenta[f]indazol-5-ol]	41%	65 nM	–	–
CC[C@]12Cc3cnn(-c4ccc(F)cc4)c3C=C1CC[C@@]2(O)CC(O)c1ccc(F)cn1 (single isomer, unassigned) [Example 69a]	33%	170 nM	–	–
COc1ccnc(CC[C@]2(O)CCC3=Cc4c(cnn4-c4ccc(F)cc4)C[C@@]32C2CC2)c1C(F)C(N)=O (stereo partly drawn) [Example 66, 2-(2-{2-[(4aR,5R)-4a-Cyclopropyl-1-(4-fluorophenyl)-5-hydroxy-1,4,4a,5,6,7-hexahydrocyclopenta[f]indazol-5-yl]ethyl}-4-methoxypyridin-3-yl)-2-fluoroacetamide]	–	7 nM	–	45%
CC[C@]12Cc3cnn(-c4ccc(F)cc4)c3C=C1CC[C@@]2(O)CCc1ncc(F)cc1C(N)=O [Example 53, 2-{2-[(4aS,5R)-4a-Ethyl-1-(4-fluorophenyl)-5-hydroxy-1,4,4a,5,6,7-hexahydrocyclopenta[f]indazol-5-yl]ethyl}-5-fluoropyridine-3-carboxamide]	49%	77 nM	–	–
CC[C@]12Cc3cnn(-c4cccnc4)c3C=C1CC[C@@]2(O)CCc1cccc(F)c1C(N)=O [Example 14, 2-{2-[(4aS,5R)-4a-Ethyl-5-hydroxy-1-(pyridin-3-yl)-1,4,4a,5,6,7-hexahydrocyclopenta[f]indazol-5-yl]ethyl}-6-fluorobenzamide]	51%	88 nM	–	–
CC[C@]12Cc3cnn(-c4cccnc4)c3C=C1CC[C@@]2(O)CCc1ccc(F)cc1C#N [Example 9, 2-{2-[(4aS,5R)-4a-Ethyl-5-hydroxy-1-(pyridin-3-yl)-1,4,4a,5,6,7-hexahydrocyclopenta[f]indazol-5-yl]ethyl}-5-fluorobenzonitrile]	15%	76 nM	–	–
